# Laboratory results as given in patent publication US12233071B2, “Medicament for treating cough” (NIPPON CHEMIPHAR CO., LTD, priority 2018, dated 2025).
# Entries after “also recorded” stand apart in the source; their conditions may differ.
# Legend:
# [1] = test system: citric acid (0.25 M)-induced cough; test: Citric acid-induced cough reflux in pretreatment mice, oral administration; type: in vivo, ICR strain mice
# [2] = test system: citric acid (0.1 M)-induced cough; test: Citric acid-induced cough in airway inflammation (LPS) model mice, oral administration; type: in vivo, ICR strain mice; settings: oral 0.3 mg/kg 1 h before 0.1 M citric acid stimulation
# Experimental: Model mice with chronic cough caused by airway inflammation (referred to as “airway inflammation model mice”) were produced.
# The airway inflammation model mice were produced while the mice were nasally instilled with lipopolysaccaride (LPS:1 μg/100 μL) daily for 3 days under diethyl ether inhalation anesthesia.
# In addition, experiments for evaluating medicament efficacy on the airway inflammation model mice were conducted at 24 h after the final LPS administration.
# Cough reflux is induced by inhalation of (in the case of mice, 0.1 M or 0.25 M and in the case of guinea pigs, 0.25 M or 0.5 M) citric acid by mice or guinea pigs under non-anesthesia conditions. […]
# (§1) The respiration and the cough reflux are measured in accordance with the body-plethysmograph method. […] The respiration is recorded in a PC (IdeaPad 300: Lenovo) for measurement by measuring, as a change in volume of the cylinder, the chest movement of each experimental animal in the cylinder by using a PowerLab (ML826 PowerLab 2/26: AD Instruments) via a respiratory flow meter. […] This change is recorded using the respiratory flow meter. This frequency is recorded to measure the number of coughs. The data is analyzed by LabChart version 8 (ADInstruments). In addition, immediately before inhalation of citric acid, the respiratory frequency per 15 sec is measured. […]
# [3] = test system: citric acid (0.25 M)-induced cough; test: Citric acid-induced cough in mice, local application by inhalation using a nebulizer; type: in vivo, ICR strain mice; settings: inhalation of 10, 30 or 100 μg/mL by nebulizer, 0.25 M citric acid after 4 min
# Text: (§2) Cough reflux is induced by inhalation of (in the case of mice, 0.1 M or 0.25 M and in the case of guinea pigs, 0.25 M or 0.5 M) citric acid by mice or guinea pigs under non-anesthesia conditions. The citric acid is made aerosol by using an ultrasonic nebulizer (NE-U17: OMRON Corporation), and is inhaled while the air is supplied with an artificial respirator (SN-480-7: Shinano Seisakusho). The citric acid aerosol has an average particle size of from 1 to 8 μm, and the artificial respirator is used to supply the air at a one-time ventilation volume of 6 mL, a frequency of 30 times per min, and an inhalation period of 3 min.
# as §1
# [4] = test system: citric acid (0.5 M)-induced cough; test: Citric acid-induced cough reflux in pretreatment guinea pigs, oral administration; type: in vivo, Hartly strain guinea pigs; settings: guinea pigs; for inhibition of citric acid-induced cough (number of coughs): oral (compound A 1, 3, 10 mg/kg; compound B 1, 3, 10, 30 mg/kg); for inhibition of citric acid-induced cough (number of coughs) / dose at which a significant inhibitory action on citric acid-induced cough was exhibited: 0.5 M citric acid 1 h after administration; for dose at which a significant inhibitory action on citric acid-induced cough was exhibited: oral
# Text: as §2
# The respiration and the cough reflux are measured in accordance with the body-plethysmograph method. The plethysmograph used includes: a plastic-made, cylindrical cylinder part in which the trunk of each mouse or guinea pig is housed; and a cap part that covers the head portion (any plastic-made cylinder is allowed as long as each experimental animal can be put in; in the case of the mouse, for instance, the part with a diameter of 4 cm and a length of 7 cm was used). An exhaust hole is created at an upper cylinder portion so as to be able to connect, via a silicon tube, to a respiratory flow meter (TP-602T: NIHON KOHDEN CORPORATION). To tightly seal the inside of the cylinder, a rubber or celluloid collar is attached to the neck of each animal, and the cap covering the whole head is used to fix them. The head-attached cap part has an exhaust port and an inhalation port created for inhalation of a cough-inducing substance. In addition, a screw-type lid is attached to a tail portion of the cylinder so as to move in or out each experimental animal. Each mouse is put in the cylinder, allowed to play for at least 30 min, adapted to an experimental environment, and then subjected to the experiment. The respiration is recorded in a PC (IdeaPad 300: Lenovo) for measurement by measuring, as a change in volume of the cylinder, the chest movement of each experimental animal in the cylinder by using a PowerLab (ML826 PowerLab 2/26: AD Instruments) via a respiratory flow meter. When a cough is induced, the chest of the experimental animal is moved vigorously, which causes an instantaneous large volume change in the cylinder. This change is recorded using the respiratory flow meter. This frequency is recorded to measure the number of coughs. The data is analyzed by LabChart version 8 (ADInstruments). In addition, immediately before inhalation of citric acid, the respiratory frequency per 15 sec is measured.
# In this way, the effects were investigated.
# At that time, Hartly strain guinea pigs were used as the guinea pigs, and 0.5 M citric acid was used as the citric acid.
# In this way, the effects were investigated. Here, 0.5 M citric acid was used as the pretreated citric acid.
# [5] = test system: citric acid (0.25 M)-induced cough; test: Citric acid-induced cough in OVA-sensitized cough model guinea pigs, oral administration; type: in vivo, Hartly strain guinea pigs; settings: oral 1 mg/kg 1 h before citric acid stimulation; for cough response increased due to airway inflammation: OVA-sensitized cough group guinea pigs
# Text: When OVA, a foreign antigen, is inhaled, airway inflammation accompanied by eosinophil infiltration is induced. Consequently, OVA-sensitized guinea pigs present symptoms of allergic cough and atopic cough. Thus, the guinea pigs have been widely used as a pathological model (antigen-induced airway inflammation model animals) reflecting human clinical conditions. Here, in the Examples of the present application, whether a compound(s) of the present application elicited cough inhibitory action against the pathological model was evaluated.
# The OVA-sensitized cough model guinea pigs were produced specifically by the following procedure.
# Note that in the following procedure, Ovalbumin or mepyramine maleate is dissolved in saline and then used.
# The number of citric acid-induced coughs is measured. Then, a mixture of 200 μL of 0.05% OVA (Ovalbumin) and 100 μL of Imject Alum (prepared by suspending aluminum hydroxide and magnesium hydroxide, each at a concentration of 40 mg/mL, in water and by adding an inactivating stabilizer thereto) per guinea pig is administered intraperitoneally (i.p.).
# After the intraperitoneal administration, 0.5% OVA is given for 5 min by inhalation at days 7, 14, 21, and 28.
# Note that at 30 min before the inhalation, mepyramine maleate (10 mg/kg) is given i.p. to prevent a shock symptom.
# At Day 35, 0.5% ovalbumin is given for 60 min by inhalation. Note that at 30 min before the inhalation, mepyramine maleate (10 mg/kg) is given i.p. to prevent a shock symptom.
# The next day of the final 0.5% ovalbumin challenge (day 35), the test is conducted.
# (§3) OVA-sensitized cough model guinea pigs were used and stimulated with 0.25 M citric acid by the same procedure as of Example 9 to induce cough reflux. For guinea pigs used in this Example, Hartly strain guinea pigs were used for any of the below-described pretreatment guinea pigs, sham group guinea pigs, and OVA-sensitized cough group guinea pigs.
# as §3, with “10” for “9”
# [6] = test system: ACh-induced contraction of bronchial smooth muscle; test: Contraction of tracheobronchial smooth muscles excised from guinea pig (isometric tension, organ bath)
# Experimental: An animal was sacrificed by phlebotomy while the ventral aorta was dissected under urethane (2 g/kg, i.p.) anesthesia. Then, a left major bronchial tissue was excised. After a connective tissue and blood vessels were removed, each ring specimen with a width of about 3 mm was prepared and suspended in an organ bath. Then, the isometric tension was measured while the resting tension was set to 1.0 g. After the baseline tension was stabilized, whether each ring specimen was subject to an acetylcholine (ACh: 10^−3 M)-mediated contraction reaction was verified. Then, the following mater was investigated. […] Next, a tracheal or left major bronchial tissue was excised. After a connective tissue and blood vessels were removed, each ring specimen with a width of about 3 mm was prepared and suspended in an organ bath. Then, the isometric tension was measured while the resting tension was set to 1.0 g. After the baseline tension was stabilized, whether each ring specimen was subject to an acetylcholine (ACh: 10^−3 M)-mediated contraction reaction was verified. Then, the following mater was investigated. […] The specimen was likewise treated with just 0.1% DMSO.
Structure (SMILES),"medicament efficacy on citric acid-induced cough at 0.3 mg/kg ([1]; oral 0.3 mg/kg, examination of Example 3)","cough inhibition rate, compound A versus the same dose of dihydrocodeine ([1]; oral 10 mg/kg, 0.25 M citric acid 1 h after administration)","inhibition of citric acid-induced cough (number of coughs) ([1]; oral 0.3, 1, 3 or 10 mg/kg, citric acid stimulation 1 h after administration)","dose at which a significant inhibitory action on citric acid-induced cough was exhibited ([1]; oral, citric acid stimulation 1 h after administration)",cough response increased due to airway inflammation ([2]; airway inflammation group mice),"change in the number of coughs in sham group mice ([2]; sham group mice (saline instead of LPS), sodium salt, 0.3 mg/kg)",antitussive effect by local application [3],inhibition of citric acid-induced cough (number of coughs) [4],dose at which a significant inhibitory action on citric acid-induced cough was exhibited [4],cough response increased due to airway inflammation [5],change in the number of coughs in sham group guinea pigs [5],"effect on baseline tension of bronchial smooth muscle ([6]; 10^−5 M, solvent water)","effect on 10^−5 M Ach-induced contraction reaction of bronchial smooth muscle ([6]; 10^−5 M, solvent water, about 50% contraction of the maximum contraction)","medicament efficacy on citric acid-induced cough at 1 mg/kg ([4]; oral 1 mg/kg, investigation of Example 10 (FIG. 10))","effect on ACh-induced contraction of bronchial smooth muscle ([6]; 10^−6 M in DMSO at final 0.1%, 10^−5 M ACh)"
"O=C1CC(=O)N(c2cccc(-c3nnn[nH]3)c2)c2ccc3ccccc3c2N1.[Na] [compound A, 5-[3-(1H-tetrazol-5-yl)phenyl]-1H-naphtho[1,2-b][1,4]diazepin-2,4(3H,5H)-dione sodium salt]",did not elicit any significant medicament efficacy,comparable,inhibited citric acid-induced cough in a dose-dependent manner,≥ 1 mg/kg,inhibited completely,a change in the number of coughs was unobserved; also recorded: did not elicit any significant medicament efficacy,"elicited an antitussive effect, in a dose-dependent manner, more strongly and more rapidly using a lower dose than the case of oral administration",inhibited citric acid-induced cough in a dose-dependent manner,≥ 1 mg/kg,inhibited completely,a change in the number of coughs was unobserved,did not affect,did not affect,,
"O=C1CC(=O)N(c2ccc(NC(=O)c3ccccc3I)cc2)c2ccc3ccccc3c2N1 [compound B, 5-[4-(2-iodobenzoylamino)phenyl]-1H-naphtho[1,2-b][1,4]diazepin-2,4(3H,5H)-dione]",,,,,,,,inhibited citric acid-induced cough in a dose-dependent manner,≥ 1 mg/kg,inhibited completely,a change in the number of coughs was unobserved,,,does not elicit any significant medicament efficacy,"Neither 0.1% DMSO itself, which was a solvent, nor compound B (at 10^−6 M) affected the ACh-induced contraction of bronchial smooth muscle"
